Experimental data from PubChem BioAssay (NCI).
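In this assay, cells in 96-well plates receive the compound at five concentrations for 48 hours. Endpoints are linearly interpolated between the surrounding concentrations. The concentration for 50% growth inhibition is given as GI50. TGI denotes the concentration required for complete inhibition of growth.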

These molecules were tested on CCRF-CEM leukemia (assay: NCI anticancer screen, dose series, 48 h).
Work on `CCC(=O)c1c(C(F)(F)F)n([O-])c2ccc(C)cc2[n+]1=O` yielded a GI50 of 18.2 µM and a TGI greater than 50 µM. Molecule `COc1ccc(C2SCC(=O)N2NC(=O)Nc2c(C)nc3ccccn23)cc1` (stereo not drawn) has a GI50 greater than 100 µM and a TGI greater than 100 µM. `COC1=CC2(C=CC1=O)c1cc(OC)c(OC)cc1CCN2C(=O)c1ccccc1` (stereo not drawn) showed a TGI greater than 100 µM. `Cc1[nH]c2ccccc2c1C1Cc2ccccc2N1C(=O)/C(Cl)=C/c1ccccc1` (stereo not drawn) was tested, and the TGI was greater than 100 µM.

What follows are molecules tested on ACHN renal (assay: NCI anticancer screen, dose series, 48 h).
In the case of `COc1ccc(/C(Cl)=C(\C=O)c2ccc([N+](=O)[O-])cc2)cc1`, the TGI is reported as 70.5 µM. `Cc1ccc(-c2cc(=O)c3cc(C)c(C)c(C(=O)O)c3o2)cc1C` showed a TGI greater than 100 µM. For `O=C(/C=C/c1c(O)ccc2ccccc12)c1ccccc1`, the TGI was greater than 100 µM. `Cc1nc2ccccc2c(=O)n1-c1ccccc1F` was tested, and the TGI was greater than 100 µM. `C=C[C@H]1C[C@@H]2C[C@@H]3[C@H]4C/C=C\C(=O)NCCCC5NC(=O)C(=C(O)/C=C/[C@@H]4CC(=O)[C@H]3[C@@H]2[C@H]1C)C5=O` (stereo partly drawn) showed a GI50 of 0.18 µM and a TGI of 0.343 µM. For `Fc1ccc(C2SCc3nc4ccccc4n32)cc1Cl` (stereo not drawn), the TGI was greater than 100 µM. Work on `C=C1CC[C@@H]2[C@](C)(COC(C)=O)[C@H](OC(C)=O)CC[C@@]2(C)[C@@H]1CC(Nc1ccc(S(=O)(=O)Nc2ncccn2)cc1)C1=CCOC1=O` (stereo partly drawn) yielded a GI50 of 1.72 µM and a TGI of 3.27 µM. With `CC1=N/C(=C\c2cccc([N+](=O)[O-])c2)C(=O)O1` the TGI was greater than 100 µM. `Cn1c2ccccc2c2c3[nH]c(=O)[nH]c(=O)c3c3c4ccccc4n(C)c3c21` was tested, and the GI50 was 1.33 µM and the TGI was 6.62 µM. With `CO[C@H]1C=C[C@@]23c4cc5c(cc4CO[C@]2(O)CN(C)[C@H]3C1)OCO5` the TGI was greater than 100 µM. `CC(C)N1CN(C(C(=O)N[C@@H]2C(=O)N3C2SC(C)(C)C3C(=O)O)c2ccccc2)CSC1=S` (stereo partly drawn) was tested, and the TGI was greater than 100 µM. With `COC(=O)c1c(C)[nH]c(/C=C2\N=C(c3ccc[nH]3)C=C2OC)c1C` the GI50 was 0.189 µM and the TGI was 1.43 µM. With `COc1ccc(/C=C\c2cc(OC)c(OC)c(OC)c2)cc1OC(=O)NCCN(C)C` the TGI was greater than 41.7 µM. `CCCCOC(=O)NC(=O)c1cn(C2CCCCC2)c(=O)[nH]c1=O` showed a TGI of 67.3 µM. For `CC(C)CCCC(=O)CCCCCCC(=O)CCN(O)C(=O)C(N)CO` (stereo not drawn), the TGI was 34.9 µM. Molecule `Cc1ccc(NC(=O)NCCCOc2ccc(N3C(N)=NC(N)=NC3(C)C)cc2Cl)cc1S(=O)(=O)F` has a GI50 of 49.3 µM and a TGI greater than 100 µM. With `CC[CH2][Sn]([Cl])([Cl])[CH2]CC.Oc1ccccc1C=NCCN=Cc1ccccc1O` the GI50 was 10.1 µM and the TGI was 21.8 µM. With `COc1cc2c(c(OC)c1)C1(CC(CC#N)C2)SCCS1` (stereo not drawn) the TGI was greater than 100 µM. `CCOC(=O)CCn1[nH]c(=O)c(Cl)c(Cl)c1=O` showed a TGI greater than 100 µM. `COc1cc2c(c(OC)c1OC)C(=O)[C@@H]1c3ccc([N+](=O)[O-])cc3C(=O)N(CCCBr)[C@H]21` was tested, and the GI50 was 15.2 µM and the TGI was 58.5 µM. Work on `C/C=C1/C(=C/c2[nH]c(/C=c3\[nH]/c(=C/C4=NC(=O)C(CC)=C4C)c(C)c3CCC(=O)O)c(CCC(=O)O)c2C)NC(=O)C1C` (stereo not drawn) yielded a GI50 greater than 150 µg/mL and a TGI greater than 150 µg/mL. With `COc1cccc(/C=C2\C(=O)N(C(=O)c3ccc(NC(C)=O)cc3)N=C2C)c1` the TGI was greater than 100 µM. `N#CCc1ccc(C(C#N)/C(CCCC(=O)Nc2cccc([N+](=O)[O-])c2)=N/NC(N)=S)cc1` (stereo not drawn) was tested, and the TGI was greater than 100 µM. With `COC(C(O)c1ccc2c(c1)OCO2)P(=O)(c1ccccc1)c1ccccc1` (stereo not drawn) the TGI was greater than 100 µM. In the case of `CC(C)c1ccc(C(c2ccc(OCC(=O)O)cc2)c2ccc(C(C)C)cc(=O)c2O)c(O)c(=O)c1`, the TGI is reported as 28 µM. `N#C/C(=C\c1cc2ccccc2c2ccccc12)c1ccccc1` gave a TGI greater than 83.5 µM. `CCOc1ccc2c(c1)[n+]([O-])c(-c1nc3ccccc3s1)c(N)[n+]2[O-]` showed a TGI greater than 100 µM. In the case of `COc1ccc2c3c(coc13)C(CCC(=O)O)CC2` (stereo not drawn), the TGI is reported as greater than 100 µM. `c1cc[c]([Pb]([c]2ccccc2)[c]2ccccc2)cc1` gave a GI50 of 33.4 µM and a TGI greater than 100 µM. `COc1ccc2nc3cc(Cl)ccc3c(NCCN)c2c1` gave a GI50 of 1.58 µM and a TGI of 3.17 µM. Work on `CC(=O)N1C/C(=C\c2ccc(N(C)C)cc2)C(=O)/C(=C/c2ccc(N(C)C)cc2)C1` yielded a TGI greater than 100 µM. `CCC(=O)c1c(C(F)(F)F)n([O-])c2ccc(C)cc2[n+]1=O` was tested, and the GI50 was 5.02 µM and the TGI was 14.2 µM. In the case of `COc1ccc(C2SCC(=O)N2NC(=O)Nc2c(C)nc3ccccn23)cc1` (stereo not drawn), the GI50 is reported as 21.9 µM and the TGI is reported as 47.3 µM. With `COC1=CC2(C=CC1=O)c1cc(OC)c(OC)cc1CCN2C(=O)c1ccccc1` (stereo not drawn) the TGI was greater than 100 µM. `Cc1[nH]c2ccccc2c1C1Cc2ccccc2N1C(=O)/C(Cl)=C/c1ccccc1` (stereo not drawn) showed a TGI greater than 100 µM.
